Test system: tet operator sequence
Test: β-galactosidase activity of a tetracycline-regulated promoter in transformed E. coli with revTetR, in the presence and absence of anhydrotetracycline (atc)
Type: cell-based, Escherichia coli
Conditions: FIG. 2
Method: The relative activity of revTetR repressors was determined at 28° C. and 37° C. for each clone by measuring β-galactosidase activity of a tetracycline-regulated promoter in transformed Escherichia coli in the presence and absence of the tetracycline analog, anhydrotetracycline (atc). The relative β-galactosidase activity was measured in standard Miller units and is presented as the percent of maximal expression as measured in the absence of Tet repressor. […] With respect to each mutant, as well as the wild-type controls, FIG. 2 provides two horizontal bars; the upper horizontal bar represents the level of β-galactosidase activity in the absence of anhydrotetracycline (−atc) while the lower horizontal bar represents the level of β-galactosidase activity in the presence of anhydrotetracycline (+atc). […]
The ability of each revTetR clone to bind to its cognate tet operator sequence and regulate transcription in a prokaryotic organism, Escherichia coli, in the presence and absence of a tetracycline analog (anhydrotetracycline, atc) was determined (Table 3, FIG. 2). […]

SMILES: Cc1c2c(c(O)c3c(O)cccc13)C(=O)[C@]1(O)C(=O)C(C(N)=O)=C(O)[C@@H](N(C)C)[C@@H]1C2 [anhydrotetracycline, reference compound]
- repression of transcription in prokaryotic organisms by the tetracycline analog (with revTetR): about 50 fold

Reference: US20030186281A1, “Modified tetracycline repressor protein compositions and methods of use” (priority 2001, published 2003)
